Data as given in patent US8957093B2, “N-biphenylmethylindole modulators of PPARG” (The Scripps Research Institute, priority 2011, dated 2015).

Key:
[1] = test system: MC3T3-E1 cells; assay: Mineralization of osteoblastic cells (Alizarin red S staining, osteoblast gene expression); type: cell-based, mouse
Description: Moreover, the expression of genes involved in the differentiation of these cells was impaired (alkaline phosphatase, RANKL, type I collagen).

[2] = Pharmacokinetic properties; details: in vivo
[3] = target: Rb protein (cdk5 substrate) (Homo sapiens (Human), UniProt Q00535); assay: cdk5 phosphorylation of Rb protein in vitro (Western blot); type: biochemical
Description: (§1) In order to develop a suitable ligand, we optimized compounds for (i) high binding affinity for PPARG, (ii) blocking the cdk5-mediated PPARG phosphorylation and (iii) lacking classical agonism. Classical agonism is defined here, as is standard in the nuclear receptor field, as an increased level of transcription through a tandem PPAR response element luciferase reporter (PPRE::Luc).

[4] = test system: RAW264.7 cells; assay: Inflammatory cytokine production in LPS stimulated RAW264.7 cells; type: cell-based
[5] = test system: pre-adipose cell lines; assay: Fat cell differentiation (Oil Red O staining, adipogenic gene expression); type: cell-based
[6] = test system: obese, insulin-resistant mice; assay: Wild-type mice fed a calorie dense diet high in sugar and fat (obese, insulin-resistant)
[7] = test system: obese, insulin-resistant mice; assay: Hyperinsulinemic-euglycemic clamp in obese mice; type: in vivo, mouse
Description: The most accurate method for measuring changes in insulin sensitivity is the hyperinsulinemic-euglycemic clamp (DeFronzo et al., 1979). In this method, animals are exposed to an elevated concentration of insulin while the amount of glucose infused is adjusted in real time to maintain fixed, or clamped glycemia.

[8] = test system: differentiated fat cells; assay: cdk5-mediated phosphorylation of PPARG in differentiated fat cells; type: cell-based
Description: as §1

[9] = test system: PPARG (murine PPARg2 or full-length human PPARG, 3xPPRE-luciferase reporter); assay: Cell-based PPRE-luciferase transactivation assay in COS-1 cells; details: compared to rosiglitazone or MRL24
[10] = test system: ob/ob mouse; assay: Leptin-deficient ob/ob mouse model; details: ob/ob mice
Description: A more severe model of obesity is the leptin-deficient ob/ob mouse. These animals are very obese and insulin-resistant, with substantial compensatory hyperinsulinemia. […] Functional analyses were performed at days 5 and 11 after the start of treatments.
Longer treatments with these drugs allowed an assessment of certain side effects.

[11] = injected twice daily for 5 days

With Cc1c(C)n(Cc2ccc(-c3ccccc3C(=O)O)cc2)c2ccc(C(=O)N[C@@H](C)c3ccc([N+](=O)[O-])cc3)cc12 [SR1664] the “expression of osteoblast differentiation genes (alkaline phosphatase, RANKL, type I collagen)” value [1] was “did not affect”, the “mineralization (calcification)” value ([1]; Alizarin red S staining) was “did not affect” and the pharmacokinetic properties [2] was “adequate”. The “effect on cdk5 phosphorylation of the Rb protein” value [3] was “no effect”, the “production of inflammatory cytokines” value [4] was “inhibition of production of inflammatory cytokines” and the “fat cell differentiation / lipid accumulation” value ([5]; Oil Red O staining) was “did not stimulate increased lipid accumulation or changes in morphology”. For the same molecule, the “expression of aP2, C/EBPα and Glut4” value ([5]; genes linked to adipogenesis) was “little or no change”, the “body weight compared to vehicle treated mice” value [6, 11] was “without significant differences” and the “cdk5-mediated phosphorylation of PPARG at serine 273 in adipose tissue” value [6, 11] was “dose-dependent decrease”. For the same molecule, the fasting insulin levels [6, 11] was “significant reduction”, the glucose levels [6, 11] was “trend toward lowered (and normalized) glucose levels” and the “insulin resistance as computed by HOMA-IR” value [6, 11] was “clear and dose-dependent improvement”. For the same molecule, the “expression of adiponectin and adipsin” value ([6]; mouse, in vivo) was “induced”, the “plasma FFA” value ([7]; basal and clamped conditions) was “reduction” and the “glucose uptake in the adipose tissue” value ([7]; clamp) was “significantly enhanced”. For the same molecule, the “suppression of endogenous hepatic glucose production (EGP)” value ([7]; clamp) was “increased”, the “whole body glucose utilization” value ([7]; clamp) was “not increased” and the “glucose infusion rate (GIR) needed to maintain euglycemia” value ([7]; versus vehicle alone) was “significantly greater”. For the same molecule, the “blocking cdk5-mediated phosphorylation of PPARG in differentiated fat cells” value [8] was “effective at blocking”, the “transcriptional agonism on tandem PPRE::Luc reporter” value [9] was “essentially no transcriptional agonism at any concentration” and the glucose tolerance test [10] was “markedly improved”. The insulin levels ([10]; after five days of treatment) was “substantially reduced”, the fasting glucose levels ([10]; after five days of treatment, vehicle 110±13) was 90 ± 12 mg/dL and the “body fat / adiposity by MRI” value ([10]; longer treatment) was “no decrease in the hematocrit or change in body adiposity”. For the same molecule, the “hematocrit (fluid retention)” value ([10]; longer treatment) was “no decrease” and the body weight ([10]; longer treatment (11 days)) was “did not cause the weight gain”.
